Data published in patent US8362000B2, “Azetidinyl diamides as monoacylglycerol lipase inhibitors” (Janssen Pharmaceutica NV, priority 2009, dated 2013).
Like-named read-outs stand apart in the source and are kept apart here.

Assays:
mutant MGL = target: T1, mutant MGL (Homo sapiens, UniProt Q99685, L169S/L176S); assay: MGL ThermoFluor assay - mutant; type: binding; details: read-out: MGL mutant ThermoFluor Kd
T1 sequence (Q99685 1-303 L169S/L176S): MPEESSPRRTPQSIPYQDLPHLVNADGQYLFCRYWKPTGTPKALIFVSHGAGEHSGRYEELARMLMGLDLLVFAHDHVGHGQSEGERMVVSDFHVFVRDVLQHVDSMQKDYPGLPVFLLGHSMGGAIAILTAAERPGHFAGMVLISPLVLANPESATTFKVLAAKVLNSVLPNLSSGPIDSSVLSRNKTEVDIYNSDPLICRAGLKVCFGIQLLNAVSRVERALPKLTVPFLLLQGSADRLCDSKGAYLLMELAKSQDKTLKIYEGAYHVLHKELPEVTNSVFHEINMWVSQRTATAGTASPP

MGL = target: T2, MGL (Rattus norvegicus, UniProt Q8R431); assay: 2-AG accumulation assay in rat brain homogenate; type: biochemical; details: rat brain homogenate, 2-AG accumulation as percent of vehicle; for 2-AG accumulation, % of vehicle control at 10 µM: compound 10 μM, read-out: Rat Brain 2AG % VehCntrl (%) @ 10 μM; for 2-AG accumulation, % of vehicle control at 1 µM: compound 1 μM, read-out: Rat Brain 2AG % VehCntrl (%) @ 1 μM
T2 construct: one g rat brain was homogenized using a Polytron homogenizer; from tissue; host or cells: rat brain homogenate
T2 sequence (Q8R431 1-303): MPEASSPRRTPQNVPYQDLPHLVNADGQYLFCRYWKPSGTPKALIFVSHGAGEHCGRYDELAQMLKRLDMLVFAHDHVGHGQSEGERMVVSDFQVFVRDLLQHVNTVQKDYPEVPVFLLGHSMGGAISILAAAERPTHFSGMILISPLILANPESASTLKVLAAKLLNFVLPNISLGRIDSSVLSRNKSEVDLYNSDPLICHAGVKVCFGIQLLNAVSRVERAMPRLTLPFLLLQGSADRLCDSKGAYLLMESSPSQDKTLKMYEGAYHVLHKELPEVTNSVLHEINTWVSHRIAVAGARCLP

[1] = ThermoFluor thermal stability binding assay
[2] = ThermoFluor concentration-response

O=C(c1cc2ccc(C(F)(F)F)cc2s1)N1CC(N2CCN(C(=O)c3nccs3)CC2)C1 [Cpd 323, 1-(1,3-Thiazol-2-ylcarbonyl)-4-(1-{[6-(trifluoromethyl)-1-benzothiophen-2-yl]carbonyl}azetidin-3-yl)piperazine] showed a Kd (mutant MGL; [1]) of 0.0013 µM and a 2-AG accumulation, % of vehicle control at 10 µM (MGL) of 494%.
For O=C(c1cc2c(C(F)(F)F)cccc2s1)N1CC(N2CCN(C(=O)c3nccs3)CC2)C1 [Cpd 327, 1-(1,3-Thiazol-2-ylcarbonyl)-4-(1-{[4-(trifluoromethyl)-1-benzothiophen-2-yl]carbonyl}azetidin-3-yl)piperazine], the Kd (mutant MGL; [1]) was 0.0137 µM and the 2-AG accumulation, % of vehicle control at 1 µM (MGL) was 904%.
For O=C(c1cc2cccc(C(F)(F)F)c2s1)N1CC(N2CCN(C(=O)c3nccs3)CC2)C1 [Cpd 328], the Kd (mutant MGL; [1]) was 0.0816 µM and the 2-AG accumulation, % of vehicle control at 1 µM (MGL) was 378%.
O=C(c1cscn1)N1CCN(C2CN(C(=O)c3cc4cccc(C(F)(F)F)c4s3)C2)CC1 [Cpd 332, 1-(1,3-Thiazol-4-ylcarbonyl)-4-(1-{[7-(trifluoromethyl)-1-benzothiophen-2-yl]carbonyl}azetidin-3-yl)piperazine] was tested, and the Kd (mutant MGL; [1]) was 0.109 µM and the 2-AG accumulation, % of vehicle control at 1 µM (MGL) was 182%.
Work on O=C(c1ccccc1)N1CCN(C2CN(C(=O)c3sc4cc(-c5ccccc5)ccc4c3Cl)C2)CC1 [Cpd 344] yielded a Kd (mutant MGL; [1]) of 0.01 µM and a 2-AG accumulation, % of vehicle control at 1 µM (MGL) of 238%.
In the case of O=C(c1ccccc1)N1CCN(C2CN(C(=O)c3ccc(-c4ccc(C(F)(F)F)cc4)s3)C2)CC1 [Cpd 347], the Kd (mutant MGL; [1]) is reported as 0.125 µM and the 2-AG accumulation, % of vehicle control at 1 µM (MGL) is reported as 125%.
For O=C(c1ccc2c(c1)CCCN2C(=O)c1cccc(C(F)(F)F)c1)N1CC(N2CCN(C(=O)c3nccs3)CC2)C1 [Cpd 358, 6-(3-[4-(1,3-Thiazol-2-ylcarbonyl)piperazin-1-yl]-azetidin-1-yl)-carbonyl 1-[3-(trifluoromethyl)phenyl]carbonyl-1,2,3,4-tetrahydroquinoline], the Kd (mutant MGL; [1]) was 0.065 µM and the 2-AG accumulation, % of vehicle control at 1 µM (MGL) was 556%.
O=C(c1ccc2c(c1)CCCN2C(=O)C1CC1)N1CC(N2CCN(C(=O)c3nccs3)CC2)C1 [Cpd 359, 1-(Cyclopropylcarbonyl)-6-({3-[4-(1,3-thiazol-2-ylcarbon-yl)piperazin-1-yl]azetidin-1-yl}carbonyl)-1,2,3,4-tetrahydroquinoline] gave a Kd (mutant MGL; [1]) of 0.0829 µM and a 2-AG accumulation, % of vehicle control at 1 µM (MGL) of 176%.
O=C(c1ccc2c(c1)CCCN2C(=O)C1CCCCC1)N1CC(N2CCN(C(=O)c3nccs3)CC2)C1 [Cpd 360] gave a Kd (mutant MGL; [1]) of 0.068 µM and a 2-AG accumulation, % of vehicle control at 1 µM (MGL) of 819%.
With CS(=O)(=O)N1CCCc2cc(C(=O)N3CC(N4CCN(C(=O)c5nccs5)CC4)C3)ccc21 [Cpd 361] the Kd (mutant MGL; [1]) was 0.144 µM and the 2-AG accumulation, % of vehicle control at 1 µM (MGL) was 186%.
O=C(c1ccc2c(c1)CCCN2S(=O)(=O)c1ccccc1)N1CC(N2CCN(C(=O)c3nccs3)CC2)C1 [Cpd 366, 1-(Phenylsulfonyl)-6-({3-[4-(1,3-thiazol-2-ylcarbonyl)piperazin-1-yl]azetidin-1-yl}carbonyl)-1,2,3,4-tetrahydroquinoline] showed a Kd (mutant MGL; [1]) of 0.0353 µM and a 2-AG accumulation, % of vehicle control at 1 µM (MGL) of 432%.
Compound O=C(c1ccc2c(c1)CCCN2S(=O)(=O)c1cccc(C(F)(F)F)c1)N1CC(N2CCN(C(=O)c3nccs3)CC2)C1 [Cpd 367, 6-({3-[4-(1,3-Thiazol-2-ylcarbonyl)piperazin-1-yl]azetidin-1-yl}carbonyl)-1-{[3-(trifluoromethyl)phenyl]sulfonyl}-1,2,3,4-tetrahydroquinoline] has a Kd (mutant MGL; [1]) of 0.0853 µM and a 2-AG accumulation, % of vehicle control at 1 µM (MGL) of 701%.
O=C(c1ccc2c(c1)CCCN2S(=O)(=O)c1cccc(F)c1)N1CC(N2CCN(C(=O)c3nccs3)CC2)C1 [Cpd 368, 1-[(3-Fluorophenyl)sulfonyl]-6-({3-[4-(1,3-thiazol-2-ylcarbonyl)piperazin-1-yl]azetidin-1-yl}carbonyl)-1,2,3,4-tetrahydroquinoline] showed a Kd (mutant MGL; [1]) of 0.0551 µM and a 2-AG accumulation, % of vehicle control at 1 µM (MGL) of 434%.
Compound O=C(c1ccc2c(c1)CCCN2Cc1ccccc1)N1CC(N2CCN(C(=O)c3nccs3)CC2)C1 [Cpd 370, 1-Benzyl-6-({3-[4-(1,3-thiazol-2-ylcarbonyl)piperazin-1-yl]azetidin-1-yl}carbonyl)-1,2,3,4-tetrahydroquinoline] has a Kd (mutant MGL; [1]) of 0.001 µM and a 2-AG accumulation, % of vehicle control at 1 µM (MGL) of 888%.
With O=C(c1ccccc1)N1CCN(C2CN(C(=O)c3ccc(OCc4ccc(Cl)c(Cl)c4)cc3)C2)CC1 [Cpd 379, 1-[1-({4-[(3,4-dichlorobenzyl)oxy]phenyl}carbonyl)azetidin-3-yl]-4-(phenylcarbonyl)piperazine] the Kd (mutant MGL; [1]) was 0.04 µM and the 2-AG accumulation, % of vehicle control at 10 µM (MGL) was 760%.
For O=C(c1ccccc1)N1CCN(C2CN(C(=O)c3ccc(OCc4cccc(Cl)c4)c(Cl)c3)C2)CC1 [Cpd 397, 1-[1-({3-Chloro-4-[(3-chlorobenzyl)oxy]phenyl}carbonyl)azetidin-3-yl]-4-(phenylcarbonyl)piperazine], the Kd (mutant MGL; [1]) was 0.0333 µM and the 2-AG accumulation, % of vehicle control at 10 µM (MGL) was 243%.
Compound O=C(c1ccc(OCc2ccncc2)c(Cl)c1)N1CC(N2CCN(C(=O)c3nccs3)CC2)C1 [Cpd 398, 1-(1-{[3-Chloro-4-(pyridin-4-ylmethoxy)phenyl]carbon-yl}azetidin-3-yl)-4-(1,3-thiazol-2-ylcarbonyl)piperazine] has a Kd (mutant MGL; [1]) of 0.0869 µM and a 2-AG accumulation, % of vehicle control at 1 µM (MGL) of 392%.
Work on O=C(c1ccc(OCc2cccc(Cl)c2)c(Cl)c1)N1CC(N2CCN(C(=O)c3nccs3)CC2)C1 [Cpd 401, 1-[1-({3-Chloro-4-[(3-chlorobenzyl)oxy]phenyl}carbon-yl)azetidin-3-yl]-4-(1,3-thiazol-2-ylcarbonyl)piperazine] yielded a Kd (mutant MGL; [1]) of 0.00167 µM and a 2-AG accumulation, % of vehicle control at 10 µM (MGL) of 762%.
Compound O=C(c1ccc(OCc2cccnc2)c(Cl)c1)N1CC(N2CCN(C(=O)c3nccs3)CC2)C1 [Cpd 402, 1-(1-{[3-Chloro-4-(pyridin-3-ylmethoxy)phenyl]carbon-yl}azetidin-3-yl)-4-(1,3-thiazol-2-ylcarbonyl)piperazine] has a Kd (mutant MGL; [1]) of 0.141 µM and a 2-AG accumulation, % of vehicle control at 1 µM (MGL) of 97%.
O=C(c1ccc(OCc2ccncc2)cc1)N1CC(N2CCN(C(=O)c3nccs3)CC2)C1 [Cpd 403, 1-(1-{[4-(Pyridin-4-ylmethoxy)phenyl]carbonyl}azetidin-3-yl)-4-(1,3-thiazol-2-ylcarbonyl)piperazine] gave a Kd (mutant MGL; [1]) of 0.338 µM and a 2-AG accumulation, % of vehicle control at 1 µM (MGL) of 188%.
Work on O=C(c1ccccc1)N1CCN(C2CN(C(=O)c3ccc(OCc4ccccn4)c(Cl)c3)C2)CC1 [Cpd 406] yielded a Kd (mutant MGL; [1]) of 0.932 µM and a 2-AG accumulation, % of vehicle control at 1 µM (MGL) of 99%.
In the case of O=C(c1ccccc1)N1CCN(C2CN(C(=O)c3ccc(SCc4cccc(Cl)c4)cc3)C2)CC1 [Cpd 410, 1-[1-({4-[(3-Chlorobenzyl)sulfanyl]phenyl}carbonyl)azetidi-3-yl]-4-(phenylcarbonyl)piperazine], the Kd (mutant MGL; [2]) is reported as 0.0333 µM and the 2-AG accumulation, % of vehicle control at 10 µM (MGL) is reported as 720%.
Compound O=C(c1ccccc1)N1CCN(C2CN(C(=O)c3ccc(SCc4cccc(Cl)c4Cl)cc3)C2)CC1 [Cpd 411, 1-[1-({4-[(2,3-Dichlorobenzyl)sulfanyl]phenyl}carbonyl)azetidin-3-yl]-4-(phenylcarbonyl)piperazine] has a Kd (mutant MGL; [2]) of 0.0333 µM and a 2-AG accumulation, % of vehicle control at 10 µM (MGL) of 741%.
O=C(c1ccc(SCc2cccnc2)cc1)N1CC(N2CCN(C(=O)c3nccs3)CC2)C1 [Cpd 416] showed a Kd (mutant MGL; [2]) of 0.16 µM and a 2-AG accumulation, % of vehicle control at 1 µM (MGL) of 228%.
In the case of O=C(c1ccccc1)N1CCN(C2CN(C(=O)c3ccc(Oc4ccc(Cl)c(Cl)c4)cc3)C2)CC1 [Cpd 422, 1-(1-{[4-(3,4-Dichlorophenoxy)phenyl]carbonyl}azetidin-3-yl)-4-(phenylcarbonyl)piperazine], the Kd (mutant MGL; [2]) is reported as 0.0532 µM and the 2-AG accumulation, % of vehicle control at 1 µM (MGL) is reported as 120%.
O=C(c1ccc(Oc2ccc(Cl)c(Cl)c2)cc1)N1CC(N2CCN(C(=O)c3nccs3)CC2)C1 [Cpd 423, 1-(1-{[4-(3,4-Dichlorophenoxy)phenyl]carbonyl}azetidin-3-yl)-4-(1,3-thiazol-2-ylcarbonyl)piperazine] showed a Kd (mutant MGL; [2]) of 0.0069 µM and a 2-AG accumulation, % of vehicle control at 1 µM (MGL) of 529%.
O=C(c1ccccc1)N1CCN(C2CN(C(=O)c3ccc(Sc4cccc(Cl)c4)cc3)C2)CC1 [Cpd 427, 4-(1-{[4-(3-Chloro-phenylsulfanyl)phenyl]carbonyl}azetidin-3-yl)-1-(phenylcarbonyl)-piperazine] showed a Kd (mutant MGL; [2]) of 0.0335 µM and a 2-AG accumulation, % of vehicle control at 1 µM (MGL) of 163%.
O=C(c1ccc(Sc2cccc(Cl)c2)cc1)N1CC(N2CCN(C(=O)c3nccs3)CC2)C1 [Cpd 428] showed a Kd (mutant MGL; [2]) of 0.0033 µM and a 2-AG accumulation, % of vehicle control at 1 µM (MGL) of 734%.
For O=C(c1ccc(Sc2cccc(Cl)c2)cc1)N1CC(N2CCN(C(=O)c3cscn3)CC2)C1 [Cpd 429], the Kd (mutant MGL; [2]) was 0.0331 µM and the 2-AG accumulation, % of vehicle control at 1 µM (MGL) was 318%.
With O=C(c1ccc(COc2cccc(Cl)c2)cc1)N1CC(N2CCN(C(=O)c3nccs3)CC2)C1 [Cpd 453, 1-[1-({4-[(3-Chlorophenoxy)methyl]phenyl}carbonyl)azetidin-3-yl]-4-(1,3-thiazol-2-ylcarbonyl)piperazine] the Kd (mutant MGL; [2]) was 0.012 µM and the 2-AG accumulation, % of vehicle control at 1 µM (MGL) was 917%.
For O=C(c1ccccc1)N1CCN(C2CN(C(=O)c3ccc(NCc4ccccc4)c(I)c3)C2)CC1 [Cpd 542], the Kd (mutant MGL; [2]) was 0.014 µM and the 2-AG accumulation, % of vehicle control at 1 µM (MGL) was 366%.
